Source: ChEMBL document CHEMBL3046898, “Synthesis and characterization of flurbiprofen hydrazide derivatives as potential anti-HCV, anticancer and antimicrobial agents” (2013)
Calls of active or inactive are those of the source. The calls are words filed in the database; no cut-off is given here.

Columns and labels:
Proteus vulgaris [1] = test: Antibacterial activity against Proteus vulgaris at 10 mg/ml after 24 hrs by disc diffusion method; format: functional, organism-based
Nakaseomyces glabratus = test: Antifungal activity against Candida glabrata at 10 mg/ml after 48 hrs by disc diffusion method; format: functional, organism-based
Kluyveromyces marxianus = test: Antifungal activity against Kluyveromyces marxianus at 10 mg/ml after 48 hrs by disc diffusion method; format: functional, organism-based
[2] = test system: Schwanniomyces occidentalis; test: Antifungal activity against Schwanniomyces occidentalis at 10 mg/ml after 48 hrs by disc diffusion method; format: functional, organism-based
Pseudomonas aeruginosa [3] = test: Antibacterial activity against Pseudomonas aeruginosa at 10 mg/ml after 24 hrs by disc diffusion method; format: functional, organism-based
Micrococcus lylae [4] = test: Antibacterial activity against Micrococcus lylae at 10 mg/ml after 24 hrs by disc diffusion method; format: functional, organism-based
Micrococcus luteus [5] = test: Antibacterial activity against Micrococcus luteus at 6.25 to 200 ug/ml after 24 hrs by microwell dilution method; format: functional, organism-based
Salmonella paratyphi [6] = test: Antibacterial activity against Salmonella paratyphi at 10 mg/ml after 24 hrs by disc diffusion method; format: functional, organism-based; settings: Salmonella enterica subsp. enterica serovar Paratyphi A
Micrococcus luteus [7] = test: Antibacterial activity against Micrococcus luteus at 10 mg/ml after 24 hrs by disc diffusion method; format: functional, organism-based
Staphylococcus aureus [8] = test: Antibacterial activity against Staphylococcus aureus at 10 mg/ml after 24 hrs by disc diffusion method; format: functional
Candida parapsilosis = test: Antifungal activity against Candida parapsilosis at 10 mg/ml after 48 hrs by disc diffusion method; format: functional, organism-based
[9] = test system: Acinetobacter radioresistens; test: Antibacterial activity against Acinetobacter radioresistens at 10 mg/ml after 24 hrs by disc diffusion method; format: functional, organism-based
Pseudomonas aeruginosa [10] = test: Antibacterial activity against Pseudomonas aeruginosa at 6.25 to 200 ug/ml after 24 hrs by microwell dilution method; format: functional, organism-based
Staphylococcus aureus [11] = test: Antibacterial activity against Staphylococcus aureus at 6.25 to 200 ug/ml after 24 hrs by microwell dilution assay; format: functional, organism-based
Salmonella paratyphi [12] = test: Antibacterial activity against Salmonella paratyphi at 6.25 to 200 ug/ml after 24 hrs by microwell dilution method; format: functional, organism-based; settings: Salmonella enterica subsp. enterica serovar Paratyphi A
Aspergillus = test: Antifungal activity against Aspergillus at 10 mg/ml after 72 hrs by disc diffusion method; format: functional, organism-based
Klebsiella aerogenes [13] = test: Antibacterial activity against Enterobacter aerogenes at 10 mg/ml after 24 hrs by disc diffusion method; format: functional, organism-based
Staphylococcus cohnii [14] = test: Antibacterial activity against Staphylococcus cohnii at 6.25 to 200 ug/ml after 24 hrs by microwell dilution assay; format: functional, organism-based
Hepacivirus hominis = test: Inhibition of HCV N-terminal His-tagged NS5B RNA dependent RNA polymerase expressed in Escherichia coli DH5alpha using poly rA/U12 as primer at 200 uM after 60 mins by liquid scintillation counting
Photorhabdus luminescens [15] = test: Antibacterial activity against Photorhabdus luminescens at 6.25 to 200 ug/ml after 24 hrs by microwell dilution method; format: functional, organism-based
Escherichia coli [16] = test: Antibacterial activity against Escherichia coli at 6.25 to 200 ug/ml after 24 hrs by microwell dilution method; format: functional, organism-based
Photorhabdus luminescens [17] = test: Antibacterial activity against Photorhabdus luminescens at 10 mg/ml after 24 hrs by disc diffusion method; format: functional, organism-based
Candida albicans = test: Antifungal activity against Candida albicans at 10 mg/ml after 48 hrs by disc diffusion method; format: functional, organism-based
Pichia membranifaciens = test: Antifungal activity against Pichia membranifaciens at 10 mg/ml after 48 hrs by disc diffusion method; format: functional, organism-based
Micrococcus lylae [18] = test: Antibacterial activity against Micrococcus lylae at 6.25 to 200 ug/ml after 24 hrs by microwell dilution method; format: functional, organism-based
Klebsiella aerogenes [19] = test: Antibacterial activity against Enterobacter aerogenes at 6.25 to 200 ug/ml after 24 hrs by microwell dilution method; format: functional, organism-based
Candida tropicalis = test: Antifungal activity against Candida tropicalis at 10 mg/ml after 48 hrs by disc diffusion method; format: functional, organism-based
Proteus vulgaris [20] = test: Antibacterial activity against Proteus vulgaris at 6.25 to 200 ug/ml after 24 hrs by microwell dilution method; format: functional, organism-based
[21] = test system: Acinetobacter radioresistens; test: Antibacterial activity against Acinetobacter radioresistens at 6.25 to 200 ug/ml after 24 hrs by microwell dilution method; format: functional, organism-based
Staphylococcus cohnii [22] = test: Antibacterial activity against Staphylococcus cohnii at 10 mg/ml after 24 hrs by disc diffusion method; format: functional
Escherichia coli [23] = test: Antibacterial activity against Escherichia coli at 10 mg/ml after 24 hrs by disc diffusion method; format: functional, organism-based

SMILES	Activity (Proteus vulgaris [1])	Activity (Nakaseomyces glabratus)	Activity (Kluyveromyces marxianus)	Activity [2]	Activity (Pseudomonas aeruginosa [3])	Activity (Micrococcus lylae [4])	Activity (Micrococcus luteus [5])	Activity (Salmonella paratyphi [6])	Activity (Micrococcus luteus [7])	Activity (Staphylococcus aureus [8])	Activity (Candida parapsilosis)	Activity [9]	Activity (Pseudomonas aeruginosa [10])	Activity (Staphylococcus aureus [11])	Activity (Salmonella paratyphi [12])	Activity (Aspergillus)	Activity (Klebsiella aerogenes [13])	Activity (Staphylococcus cohnii [14])	inhibition (Hepacivirus hominis)	Activity (Photorhabdus luminescens [15])	also measured
C=CCN1C(=O)CS/C1=N\NC(=O)C(C)c1ccc(-c2ccccc2)c(F)c1 (stereo not given)	inactive	inactive	inactive	inactive	inactive	inactive	inactive	inactive	inactive	inactive	inactive	inactive	inactive	inactive	inactive	inactive	inactive	inactive	8%	inactive	Activity (Escherichia coli [16]): inactive; Activity (Photorhabdus luminescens [17]): inactive; Activity (Candida albicans): inactive; Activity (Pichia membranifaciens): inactive; Activity (Micrococcus lylae [18]): inactive; Activity (Klebsiella aerogenes [19]): inactive; Activity (Candida tropicalis): inactive; Activity (Proteus vulgaris [20]): inactive; Activity [21]: inactive; Activity (Staphylococcus cohnii [22]): inactive; Activity (Escherichia coli [23]): inactive
CC(C(=O)N/N=C/c1ccc(Cl)cc1)c1ccc(-c2ccccc2)c(F)c1 (stereo not given)	inactive	inactive	inactive	inactive	inactive	inactive	inactive	inactive	inactive	inactive	inactive	inactive	inactive	inactive	inactive	inactive	inactive	inactive	8%	inactive	Activity (Escherichia coli [16]): inactive; Activity (Photorhabdus luminescens [17]): inactive; Activity (Candida albicans): inactive; Activity (Pichia membranifaciens): inactive; Activity (Micrococcus lylae [18]): inactive; Activity (Klebsiella aerogenes [19]): inactive; Activity (Candida tropicalis): inactive; Activity (Proteus vulgaris [20]): inactive; Activity [21]: inactive; Activity (Staphylococcus cohnii [22]): inactive; Activity (Escherichia coli [23]): inactive
CC(C(=O)N/N=C/c1ccc([N+](=O)[O-])o1)c1ccc(-c2ccccc2)c(F)c1 (stereo not given)	inactive	inactive	inactive	inactive	inactive	inactive	inactive	inactive	inactive	inactive	inactive	inactive	inactive	inactive	inactive	inactive	inactive	inactive	8%	inactive	Activity (Escherichia coli [16]): inactive; Activity (Photorhabdus luminescens [17]): inactive; Activity (Candida albicans): inactive; Activity (Pichia membranifaciens): inactive; Activity (Micrococcus lylae [18]): inactive; Activity (Klebsiella aerogenes [19]): inactive; Activity (Candida tropicalis): inactive; Activity (Proteus vulgaris [20]): inactive; Activity [21]: inactive; Activity (Staphylococcus cohnii [22]): inactive; Activity (Escherichia coli [23]): inactive
CC(C(=O)N/N=C/c1ccccc1Cl)c1ccc(-c2ccccc2)c(F)c1 (stereo not given)	inactive	inactive	inactive	inactive	inactive	inactive	inactive	inactive	inactive	inactive	inactive	inactive	inactive	inactive	inactive	inactive	inactive	inactive	8%	inactive	Activity (Escherichia coli [16]): inactive; Activity (Photorhabdus luminescens [17]): inactive; Activity (Candida albicans): inactive; Activity (Pichia membranifaciens): inactive; Activity (Micrococcus lylae [18]): inactive; Activity (Klebsiella aerogenes [19]): inactive; Activity (Candida tropicalis): inactive; Activity (Proteus vulgaris [20]): inactive; Activity [21]: inactive; Activity (Staphylococcus cohnii [22]): inactive; Activity (Escherichia coli [23]): inactive
CC(C(=O)N/N=C1\SCC(=O)N1Cc1ccccc1)c1ccc(-c2ccccc2)c(F)c1 (stereo not given)	inactive	inactive	inactive	inactive	inactive	inactive	inactive	inactive	inactive	inactive	inactive	inactive	inactive	inactive	inactive	inactive	inactive	inactive	8%	inactive	Activity (Escherichia coli [16]): inactive; Activity (Photorhabdus luminescens [17]): inactive; Activity (Candida albicans): inactive; Activity (Pichia membranifaciens): inactive; Activity (Micrococcus lylae [18]): inactive; Activity (Klebsiella aerogenes [19]): inactive; Activity (Candida tropicalis): inactive; Activity (Proteus vulgaris [20]): inactive; Activity [21]: inactive; Activity (Staphylococcus cohnii [22]): inactive; Activity (Escherichia coli [23]): inactive
